Measurements: ChEMBL document CHEMBL1142851, “An efficient synthesis of aryloxyphenyl cyclopropyl methanones: a new class of anti-mycobacterial agents” (2005)
Values after ≈ are worked out from the molar mass of the structure shown.

How the values were obtained:
[1] = test system: Mycobacterium tuberculosis; assay: Minimum inhibitory concentration against H37Ra stain of Mycobacterium tuberculosis using MABA method; format: functional
[2] = test system: Mycobacterium tuberculosis; assay: Minimum inhibitory concentration against H37Rv stain of Mycobacterium tuberculosis using Agar Microdilution; format: functional

| Compound | MIC [1] [µg/mL] | MIC [2] [µg/mL] |
| --- | --- | --- |
| COc1ccc(COc2ccc(C(O)C3CC3)cc2)cc1OC (configuration not stated) | 3.12 (≈ 9.92 µM) | > 50 |
| O=C(c1ccc(OCc2ccccc2)cc1)C1CC1 | 25 (≈ 99.1 µM) | 6.25 (≈ 24.8 µM) |
| c1ccc(COc2ccc(CC3CC3)cc2)cc1 | > 50 | 12.5 (≈ 52.4 µM) |
| Clc1ccccc1COc1ccc(CC2CC2)cc1 | > 25 | > 50 |
| OC(c1ccc(OCc2ccncc2)cc1)C1CC1 (configuration not stated) | > 25 | > 25 |
| O=C(c1ccc(OCC2CCCC2)cc1)C1CC1 | > 25 | 25 (≈ 102 µM) |
| Fc1ccc(COc2ccc(CC3CC3)cc2)cc1 |  | 12.5 (≈ 48.8 µM) |
| COc1ccc(COc2ccc(C(=O)C3CC3)cc2)cc1 | > 50 | 12.5 (≈ 44.3 µM) |
| O=C(c1ccc(OCc2ccncc2)cc1)C1CC1 | > 25 | 12.5 (≈ 49.3 µM) |
| COc1ccc(COc2ccc(C(O)C3CC3)cc2)cc1 (configuration not stated) | > 50 | 3.12 (≈ 11 µM) |
| OC(c1ccc(OCC2CCCC2)cc1)C1CC1 (configuration not stated) | 25 (≈ 101 µM) | 3.12 (≈ 12.7 µM) |
| OC(c1ccc(OCc2ccccc2Cl)cc1)C1CC1 (configuration not stated) | > 25 |  |
| c1cncc(COc2ccc(CC3CC3)cc2)c1 | > 25 | 25 (≈ 104 µM) |
| O=C(c1ccc(OCc2ccc(Cl)c(Cl)c2)cc1)C1CC1 | > 25 | 25 (≈ 77.8 µM) |
| O=C(c1ccc(OCCc2ccco2)cc1)C1CC1 | 25 (≈ 97.5 µM) | 25 (≈ 97.5 µM) |
| OC(c1ccc(OCc2ccc(F)cc2)cc1)C1CC1 (configuration not stated) | 25 (≈ 91.8 µM) | 6.25 (≈ 23 µM) |
| COc1ccc(COc2ccc(CC3CC3)cc2)cc1OC | 12.5 (≈ 41.9 µM) | 25 (≈ 83.8 µM) |
| OC(c1ccc(OCc2cccnc2)cc1)C1CC1 (configuration not stated) | > 25 | > 25 |
| COc1ccc(COc2ccc(CC3CC3)cc2)cc1 | > 25 | 25 (≈ 93.2 µM) |
| COc1ccc(COc2ccc(C(=O)C3CC3)cc2)cc1OC | 25 (≈ 80 µM) | 12.5 (≈ 40 µM) |
| O=C(c1ccc(OCc2ccc(Cl)cc2)cc1)C1CC1 | > 25 | 25 (≈ 87.2 µM) |
| O=C(c1ccc(OCc2ccc(F)cc2)cc1)C1CC1 | > 25 | 12.5 (≈ 46.2 µM) |
| O=C(c1ccc(OCc2ccccc2Cl)cc1)C1CC1 | > 25 | 12.5 (≈ 43.6 µM) |
| O=C(c1ccc(OCc2cccnc2)cc1)C1CC1 | > 25 | 25 (≈ 98.7 µM) |
| OC(c1ccc(OCc2ccco2)cc1)C1CC1 (configuration not stated) | > 25 | > 25 |
| O=C(c1ccc(OCC2CCCCC2)cc1)C1CC1 | > 25 | > 25 |
| OC(c1ccc(OCc2ccccc2)cc1)C1CC1 (configuration not stated) | > 50 | 25 (≈ 98.3 µM) |
